Measurements: PubChem BioAssay (NCI)
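Results reflect a 48-hour exposure of cells in 96-well plates to compound at five concentrations. TGI: concentration producing complete growth inhibition.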

Tests used:
Assay in all cases: inhibition of tumour cell growth, NCI panel, 48 h
[1] = system: SW-620 colon
[2] = system: U251 CNS
[3] = system: SN12C renal
[4] = system: TK-10 renal
[5] = system: SNB-19 CNS
[6] = system: SK-MEL-5 melanoma
[7] = system: T-47D breast
[8] = system: DU-145 prostate
[9] = system: A549 NSCLC
[10] = system: NCI-H522 lung
[11] = system: OVCAR-3 ovarian
[12] = system: HCT-116 colon
[13] = system: RPMI-8226 leukemia
[14] = system: UACC-62 melanoma
[15] = system: HOP-62 NSCLC
[16] = system: HL-60(TB) leukemia
[17] = system: SF-268 CNS
[18] = system: PC-3 prostate
[19] = system: K-562 leukemia
[20] = system: SNB-75 CNS

Work on `CCN(CC)CCOc1ccc(N2Cc3ccccc3C2=O)cc1` yielded a TGI [1] greater than 10 µM, a TGI [2] greater than 10 µM and a TGI [3] greater than 10 µM. It also gave a TGI [4] greater than 10 µM, a TGI [5] greater than 10 µM and a TGI [6] greater than 10 µM. For the same molecule, the TGI [7] was greater than 10 µM, the TGI [8] was greater than 10 µM and the TGI [9] was greater than 10 µM. For the same molecule, the TGI [10] was greater than 10 µM, the TGI [11] was greater than 10 µM and the TGI [12] was greater than 10 µM. The TGI [13] was greater than 10 µM, the TGI [14] was greater than 10 µM and the TGI [15] was greater than 10 µM. It also gave a TGI [16] greater than 10 µM, a TGI [17] greater than 10 µM and a TGI [18] greater than 10 µM. It also gave a TGI [19] greater than 10 µM and a TGI [20] greater than 10 µM.
In the case of `N#Cc1nc(Sc2cnsn2)c(Sc2cnsn2)nc1C#N`, the TGI [1] is reported as greater than 22.5 µM, the TGI [2] is reported as greater than 90.1 µM and the TGI [3] is reported as 56.3 µM. It also gave a TGI [4] of 12.1 µM, a TGI [5] greater than 78.1 µM and a TGI [6] of 29.4 µM. The TGI [7] was greater than 27.6 µM, the TGI [8] was 35.5 µM and the TGI [9] was greater than 77.4 µM. It also gave a TGI [10] of 8.53 µM, a TGI [11] of 22.1 µM and a TGI [12] of 17.1 µM. For the same molecule, the TGI [13] was greater than 100 µM, the TGI [14] was 32.5 µM and the TGI [15] was 42.4 µM. For the same molecule, the TGI [16] was 6.24 µM, the TGI [17] was 40.6 µM and the TGI [18] was 51 µM. It also gave a TGI [19] greater than 81.8 µM and a TGI [20] of 48.8 µM.
In the case of `O=C1N[C@H]2C(=O)c3c(Cl)sc(Cl)c3[C@H]2O1`, the TGI [1] is reported as 5.4 µM, the TGI [2] is reported as 11.6 µM and the TGI [3] is reported as 30.3 µM. It also gave a TGI [4] of 70.8 µM, a TGI [5] of 29.9 µM and a TGI [6] of 35 µM. The TGI [7] was 29.2 µM, the TGI [8] was 23.7 µM and the TGI [9] was 40 µM. It also gave a TGI [10] of 8.83 µM, a TGI [11] of 3.54 µM and a TGI [12] of 8.73 µM. The TGI [13] was 59.1 µM, the TGI [14] was 28.2 µM and the TGI [15] was 34.5 µM. The TGI [16] was 4.91 µM, the TGI [17] was 22.4 µM and the TGI [18] was 31 µM. The TGI [19] was 5.09 µM and the TGI [20] was 30.4 µM.
In the case of `CC(O)CCNC(=O)Nc1c(C(F)(F)F)cc(-c2ccccc2)[nH]c1=O` (stereo not given), the TGI [1] is reported as greater than 100 µM, the TGI [2] is reported as greater than 100 µM and the TGI [3] is reported as greater than 100 µM. For the same molecule, the TGI [4] was greater than 100 µM, the TGI [5] was greater than 100 µM and the TGI [6] was greater than 100 µM. It also gave a TGI [7] greater than 100 µM, a TGI [8] greater than 100 µM and a TGI [9] greater than 100 µM. The TGI [10] was greater than 100 µM, the TGI [11] was greater than 100 µM and the TGI [12] was greater than 100 µM. For the same molecule, the TGI [13] was greater than 100 µM, the TGI [14] was greater than 100 µM and the TGI [15] was greater than 100 µM. The TGI [16] was greater than 100 µM, the TGI [17] was greater than 100 µM and the TGI [18] was greater than 100 µM. It also gave a TGI [19] greater than 100 µM and a TGI [20] greater than 100 µM.
In the case of `FC(F)(F)c1ccc2c(c1)nc(Cc1ccc(Cl)c(Cl)c1)n2CC1CCCN2CCCCC12` (stereo not given), the TGI [1] is reported as greater than 100 µM, the TGI [2] is reported as 59.7 µM and the TGI [3] is reported as 42.8 µM. It also gave a TGI [4] of 74.9 µM, a TGI [5] of 53.1 µM and a TGI [6] of 30.3 µM. The TGI [7] was greater than 100 µM, the TGI [8] was greater than 100 µM and the TGI [9] was 44.2 µM. It also gave a TGI [10] of 30.8 µM, a TGI [11] of 82.3 µM and a TGI [12] of 30.6 µM. The TGI [13] was greater than 100 µM, the TGI [14] was 30.2 µM and the TGI [15] was greater than 100 µM. The TGI [16] was 51.3 µM, the TGI [17] was greater than 100 µM and the TGI [18] was greater than 100 µM. For the same molecule, the TGI [19] was greater than 100 µM and the TGI [20] was greater than 100 µM.
In the case of `c1ccc(CN2CCCN3CCN(CCCN(Cc4ccccc4)CC3)CC2)cc1`, the TGI [1] is reported as greater than 100 µM, the TGI [2] is reported as greater than 100 µM and the TGI [3] is reported as greater than 100 µM. It also gave a TGI [4] greater than 100 µM, a TGI [5] greater than 100 µM and a TGI [6] of 36.1 µM. It also gave a TGI [7] greater than 100 µM, a TGI [8] greater than 100 µM and a TGI [9] greater than 100 µM. The TGI [10] was greater than 100 µM, the TGI [11] was greater than 100 µM and the TGI [12] was greater than 100 µM. It also gave a TGI [13] greater than 100 µM, a TGI [14] greater than 100 µM and a TGI [15] greater than 100 µM. It also gave a TGI [16] of 82.3 µM, a TGI [17] greater than 100 µM and a TGI [18] greater than 100 µM. For the same molecule, the TGI [19] was greater than 100 µM and the TGI [20] was greater than 100 µM.
Work on `N#CC(c1ccccc1)N(CCc1ccccc1)C(=O)c1ccccc1` (stereo not given) yielded a TGI [1] greater than 100 µM, a TGI [2] greater than 100 µM and a TGI [3] greater than 100 µM. It also gave a TGI [4] greater than 100 µM, a TGI [5] greater than 81 µM and a TGI [6] greater than 100 µM. The TGI [7] was greater than 100 µM, the TGI [8] was greater than 100 µM and the TGI [9] was greater than 100 µM. The TGI [10] was greater than 100 µM, the TGI [11] was greater than 100 µM and the TGI [12] was greater than 100 µM. The TGI [13] was greater than 100 µM, the TGI [14] was greater than 100 µM and the TGI [15] was greater than 85.8 µM. It also gave a TGI [16] greater than 100 µM, a TGI [17] greater than 86.5 µM and a TGI [18] greater than 100 µM. For the same molecule, the TGI [19] was greater than 100 µM and the TGI [20] was 57.2 µM.
Work on `COC(=O)c1ccc(/C=C2\Cc3ccccc3C2=O)cc1` yielded a TGI [1] greater than 100 µM, a TGI [2] greater than 100 µM and a TGI [3] greater than 100 µM. It also gave a TGI [4] greater than 100 µM, a TGI [5] greater than 100 µM and a TGI [6] greater than 100 µM. The TGI [7] was greater than 100 µM, the TGI [8] was greater than 100 µM and the TGI [9] was greater than 100 µM. For the same molecule, the TGI [10] was greater than 100 µM, the TGI [11] was greater than 100 µM and the TGI [12] was greater than 100 µM. The TGI [13] was greater than 100 µM, the TGI [14] was greater than 100 µM and the TGI [15] was greater than 100 µM. It also gave a TGI [16] greater than 100 µM, a TGI [17] greater than 100 µM and a TGI [18] greater than 100 µM. The TGI [19] was greater than 100 µM and the TGI [20] was greater than 100 µM.
